From paper PMC6444592, “Citrullination of HP1γ chromodomain affects association with chromatin” (Epigenetics & Chromatin, 2019)

How the values were obtained:
[1] = tested on: mESCs; experiment: live-cell single-particle tracking, 13.5 ms, jump distance analysis; type: cell-based, mouse; settings: for Diffusion coefficient, Bound / Diffusion coefficient, Diffusing / Percentage, Bound / Percentage, Diffusing: 13.5 ms
Protocol: Parental E14 mouse embryonic stem cell (mESC) line was profiled by transcriptome analysis, qPCR and potency assays and was routinely tested for mycoplasma contamination and tested negative. Cells were cultured in DMEM (Gibco) supplemented with 15% standard FCS (Gibco), 0.1 mM non-essential amino acids (Gibco), 1% penicillin/streptomycin, 2 mM L-glutamine (Gibco), 1 mM sodium pyruvate (Gibco), 0.1 mM β-mercaptoethanol (Life Technologies) and 10^6 units/l mLIF (ESGRO, Millipore). E14 cells were stored in incubators at 37 °C in 7.5% CO2 (100% humidity) and maintained in 0.1% gelatin coated 10-cm culture dishes with 1:6 passaging every 2 days. Media was changed on a daily basis. E14 ESCs expressing mouse mEos3.2–HaloTag-HP1 fusion proteins were generated by transfecting appropriate pSB7 plasmids into E14 cells using Lipofectamine 2000 transfection reagent (Invitrogen), followed by selection in 600 µg/ml geneticin (Life Technologies). After 2 weeks of geneticin selection, cells were sorted using a Sony SH800S cell sorter for the expression of mEos3.2. Differentiation of ESCs was induced by LIF withdrawal. ESCs cultured in complete ES cell media (+ LIF) were trypsinised and washed twice in 1x PBS to remove residual LIF, seeded into ES cell media without LIF and incubated for 24, 48 or 72 h.
An IX73 Olympus inverted microscope was used with circularly polarised laser beams aligned and focused at the back aperture of an Olympus 1.40 NA 100 × oil objective (Universal Plan Super Apochromat, 100 × , NA 1.40, UPLSAPO100XO/1.4). Continuous wavelength diode laser light sources used include a 561-nm (Cobolt, Jive 200, 200 mW) and a 405-nm laser (Stradus, Toptica, 405–100, 100 mW). Oblique angle illumination was achieved by aligning the laser off axis such that the emergent beam at the sample interface was near-collimated and incident at an angle slightly less than the critical angle θc ~ 67° for a glass/water interface. This generated a ~ 50 μm diameter excitation footprint. The power of the collimated beams at the back aperture of the microscope was 10 kW/cm^2 and 10–100 W/cm^2 for the 561-nm and 405-nm laser beams, respectively. The lasers were reflected by dichroic mirrors (Semrock, Di01-R405/488/561/635). The fluorescence emission was collected through the same objective and then further filtered using a combination of long-pass and band-pass filters (BLP01-561R and FF01-587/35 for 561 nm excitation). The emission signal was projected onto an EMCCD (Photometrics, Evolve 512 Delta) with an electron multiplication gain of 250 ADU/photon operating in a frame transfer mode.
mESCs expressing mEos3.2–HaloTag-tagged HP1γ were passaged 2 days before imaging onto 35-mm glass bottom dishes No 1.0 (MatTek Corporation P35G-1.0-14-C Case) in phenol red-free serum and LIF conditions, if not stated otherwise. Just before single-particle tracking (SPT) imaging experiments, cells were labelled with 0.5 nM HaloTag–JF549 ligand for at least 15 min, followed by two washes in PBS and a 30-min incubation at 37 °C in media, before imaging the cells in fresh phenol red-free serum and LIF conditions. Cells were under-labelled to prevent overlap of fluorophores during SPT. Using 561 nm excitation, fluorescence images were collected as movies of 10,000 frames at 13.5 ms or 1000 to 5000 frames at 500 ms exposure. For live-cell tracking, data were collected for three biological replicates on separate dishes and the average values compared.
Live-cell 13.5-ms single-molecule traces were analysed using software that detects single-molecule trajectories from SPT movies. Briefly, the code detected puncta positions in each image frame using a brightness-weighted centroid after applying a band-pass filter to remove low-frequency background and high-frequency noise from the image data. To track the HP1 single molecules, only fluorescent puncta smaller than 3 pixels and with a signal to noise greater than 8 were analysed. […]

[2] = tested on: PADI4; experiment: in vitro citrullination (deimination) assay of HP1γ; type: biochemical, human; settings: with calcium; for citrullination by PADI4, in words: GST fusion proteins, anti-peptidyl-citrulline immunoblot, n = 3 (p values 0.002, 0.003, 0.008)
Protocol: For immunoblotting, cells were lysed in 2 × Laemmli buffer and sonicated in a water bath (Fisherbrand) for 3 min to shear genomic DNA, spun down at full speed in a microfuge for 15 min and incubated for 5 min at 95 °C. Proteins were resolved by SDS-PAGE, transferred to nitrocellulose membrane (Millipore) using wet transfer (transfer buffer: 192 mM glycine, 25 mM Tris.HCl pH8.8) and incubated in blocking solution (5% BSA in TBS containing 0.5% Tween-20 for citrulline sensitive antibodies and 5% non-fat milk powder in TBS containing 0.1% Tween-20 for all other antibodies) for 1 h at room temperature (RT). Membranes were incubated with primary antibody at 4 °C o/n and appropriate HRP-conjugated secondary antibody for 1 h at RT. Membranes were then incubated for enhanced chemiluminescence (ECL, Promega), and proteins were detected by exposure to X-ray film or using the ChemiDoc™ MP imaging system (Bio-Rad). Images were quantified using ImageJ analysis software. Primary antibodies diluted in blocking solution were used to detect citrullinated histone H3R2 (H3R2-Cit, Abcam ab176843 at 1:1000 dilution), HP1γ (Millipore 05-690 MAB clone 42s2 [16] at 1:1000 dilution), β-Tubulin (Abcam ab6046 at 1:1000 dilution) and peptidyl-citrulline (Millipore MABN328, clone F95 [48] at 1:1000 dilution). HRP-conjugated secondary antibodies diluted in blocking solution were used against mouse IgG (Dako, P0447 at 1:5000 dilution), rabbit IgG (Abcam, ab6721 at 1:20,000 dilution) and sheep IgG (Abcam, ab6747 at 1:5000 dilution).
In vitro deimination of GST-HP1 variants was carried out as described previously [22]. In vitro deimination assays were performed in the presence and absence of 100 ng H3(1–16) or H3K9me3 peptides as appropriate. Samples were resuspended in 1 × Laemmli buffer for immunoblot analysis.

[3] = tested on: H3K9me3(1–16) peptides; experiment: peptide pulldown assay; type: binding; settings: 300 mM NaCl HBS-EP; Coomassie gel; n = 3 (p values 0.021, 0.008; ns 0.181)
Protocol: H3K9me3 or unmethylated H3(1–16) peptides, linked to Dynabeads MyOne streptavidin T1 (Thermo Fisher Scientific), were used in pulldown assays with eluted GST-HP1 in HBS-EP (300 mM NaCl, 10 mM HEPES KOH pH 7.4, 5 mM EDTA and 0.2% NP-40). Pulldown assays were performed in 300 mM NaCl HBS-EP as previously described. Samples were resuspended in 2 × Laemmli buffer and resolved by SDS-PAGE followed by Coomassie-blue staining. Images were quantified using ImageJ software.

[4] = tested on: H3K9me3(1–16) peptides; experiment: bio-layer interferometry (BLI); type: binding; settings: 20 mM Hepes KOH pH 7.2, 70 mM KCl, GST fusion, association 120 s, dissociation 120 s, WT 28.0 μM, R38/9K 25.5 μM, R38/9A 28.3 μM and lower concentrations
Protocol: Recombinant mouse full-length HP1 wildtype and mutant proteins were expressed in (as GST fusion proteins), and purified from, Escherichia coli as described. Proteins were concentrated using Amicon Ultra centrifugation filters with a 30 kDa cutoff (Millipore), washed into binding buffer (20 mM Hepes KOH pH 7.2, 70 mM KCl, 1 mM DTT, 0.1% Tween-20, 5% glycerol). Protein concentrations were determined by Bradford protein assay against a BSA standard, and purity was verified by SDS-PAGE followed by Coomassie-blue staining. Real-time binding assays of GST-HP1γ were performed using the BLItz® system (ForteBio) in binding buffer (+ 0.1% BSA). Biotinylated H3(1–16) peptides (NH2-[…](me3)STGGKAP-Biotin) were immobilised to Dip and Read High Precision Streptavidin (SAX) Biosensors (ForteBio), and kinetics for a range of protein concentrations were measured under advanced kinetics settings (1. initial baseline measuring buffer only: 30 s, 2. loading of peptides onto sensors: 120 s, 3. effective baseline measurement: 30 s, 4. association of GST-HP1γ proteins: 120 s, 5. dissociation of GST-HP1γ proteins: 120 s). The data were normalised to the effective baseline signal by subtracting the average baseline value (150–180 s) from each data point (150–420 s). […] Raw data are summarised in Additional file 3: Table S1.

[5] = tested on: mESCs; experiment: immunoprecipitation of endogenous HP1γ and anti-peptidyl-citrulline immunoblot; type: cell-based, mouse; settings: −LIF 72 h versus +LIF; nuclear lysates; three replicates
Protocol: For immunoblotting, cells were lysed in 2 × Laemmli buffer and sonicated in a water bath (Fisherbrand) for 3 min to shear genomic DNA, spun down at full speed in a microfuge for 15 min and incubated for 5 min at 95 °C. Proteins were resolved by SDS-PAGE, transferred to nitrocellulose membrane (Millipore) using wet transfer (transfer buffer: 192 mM glycine, 25 mM Tris.HCl pH8.8) and incubated in blocking solution (5% BSA in TBS containing 0.5% Tween-20 for citrulline sensitive antibodies and 5% non-fat milk powder in TBS containing 0.1% Tween-20 for all other antibodies) for 1 h at room temperature (RT). Membranes were incubated with primary antibody at 4 °C o/n and appropriate HRP-conjugated secondary antibody for 1 h at RT. Membranes were then incubated for enhanced chemiluminescence (ECL, Promega), and proteins were detected by exposure to X-ray film or using the ChemiDoc™ MP imaging system (Bio-Rad). Images were quantified using ImageJ analysis software. Primary antibodies diluted in blocking solution were used to detect citrullinated histone H3R2 (H3R2-Cit, Abcam ab176843 at 1:1000 dilution), HP1γ (Millipore 05-690 MAB clone 42s2 [16] at 1:1000 dilution), β-Tubulin (Abcam ab6046 at 1:1000 dilution) and peptidyl-citrulline (Millipore MABN328, clone F95 [48] at 1:1000 dilution). […]

HP1γI165K: chromoshadow domain (CSD) mutant HP1γI165K, which prevents dimerisation of HP1γ [reference compound]
Diffusion coefficient, Bound ([1]; +LIF, replicate i): 0.081 µm2s-1 | Diffusion coefficient, Diffusing ([1]; +LIF, replicate i): 1.500 µm2s-1 | Percentage, Bound ([1]; +LIF, replicate i): 32.7% | Percentage, Diffusing ([1]; +LIF, replicate i): 67.3% | Diffusion coefficient, Bound ([1]; +LIF, replicate ii): 0.100 µm2s-1 | Diffusion coefficient, Diffusing ([1]; +LIF, replicate ii): 1.485 µm2s-1 | Percentage, Bound ([1]; +LIF, replicate ii): 20.9% | Percentage, Diffusing ([1]; +LIF, replicate ii): 79.1% | Diffusion coefficient, Bound ([1]; +LIF, replicate iii): 0.00228 µm2s-1 | Diffusion coefficient, Diffusing ([1]; +LIF, replicate iii): 1.500 µm2s-1 | Percentage, Bound ([1]; +LIF, replicate iii): 0.4% | Percentage, Diffusing ([1]; +LIF, replicate iii): 99.6% | Diffusion coefficient, Bound ([1]; +LIF, replicate iv): 0.023 µm2s-1 | Diffusion coefficient, Diffusing ([1]; +LIF, replicate iv): 1.500 µm2s-1 | Percentage, Bound ([1]; +LIF, replicate iv): 4% | Percentage, Diffusing ([1]; +LIF, replicate iv): 96% | diffusion coefficient of bound molecules, in words ([1]; mESCs, n = 4–5): remained unchanged | diffusion of diffusing molecules versus wildtype ([1]; mESCs, n = 4–5, p value: 0.0001): moved significantly more quickly than wildtype molecules | percentages of molecules within diffusing and bound fraction, significance versus WT ([1]; n = 4–5, p value > 0.165): ns. | Diffusion coefficient, Diffusing ([1]; −LIF, replicate i): 1.101 µm2s-1 | Percentage, Bound ([1]; −LIF, replicate i): 10% | Percentage, Diffusing ([1]; −LIF, replicate i): 90% | Diffusion coefficient, Bound ([1]; −LIF, replicate ii): 0.098 µm2s-1 | Diffusion coefficient, Diffusing ([1]; −LIF, replicate ii): 1.500 µm2s-1 | Percentage, Bound ([1]; −LIF, replicate ii): 16.6% | Percentage, Diffusing ([1]; −LIF, replicate ii): 83.4%

HP1γR38/9K: HP1γ with both R38 and R39 mutated to lysine
enhancement of citrullination by H3K9me3 peptides, in words ([2]; H3K9me3(1–16) peptides, mutant used as substrate): abolished | binding in pulldown, in words [3]: maintained binding to H3K9me3 peptides | BLI binding, in words [4]: binds H3K9me3 peptides with similar affinity to the WT protein | BLI binding, in words ([4]; listed as R38/9K): maintained binding to H3K9me3 peptides

R39K: HP1γ with R39 substituted with lysine
citrullination by PADI4, in words [2]: abolished

heterochromatin protein 1 gamma [HP1γ]
citrullination by PADI4, in words [2]: PADI4 citrullinates HP1γ in vitro | citrullination of endogenous HP1γ in differentiating mESCs [5]: significantly less citrullinated in differentiating mESCs | binding in pulldown, in words [3]: specifically binds to H3K9me3 peptides
